Like-named read-outs stand apart in the source and are kept apart here.
Experiments:
T98G = test: MTT-based cytotoxicity assay, T98G; assay type: cell-based; settings: Homo sapiens, 72 h
Procedure: (§1) A dose-response analysis of BMT9 (concentrations ranging from 4.5 µM-18 µM), BCNU (from 150 µM-500 µM) and TMZ (350 µM-700 µM) was performed in two conventional glioblastoma cell lines (T98G, U373) and the GNS cell line G144 by MTT-based cytotoxicity assays (Figure 5A-D). Cells were seeded on p96-well plates and treated with the different compounds for 72 h. Then, the MTT reagent (3-(4,5-Dimethyl-2-thiazolyl)-2,5-diphenyl-2H-tetrazolium bromide diluted in PBS to a concentration of 1mg/ml), was added to each well to a final concentration of 0.33mg/ml, and incubated for 3 h at 37°C. After that, the media was removed, and formazan crystals were solubilized with DMSO. Absorbance was measured at 560 nm using a "Synergy HT" plate reader (Biotek). In the graphs, the Y axis represents the percentage of cell viability relative to non-treated cells. The IC50, when reached are marked by a rectangle. DMSO treatment had no effect on cell viability.

U373 = test: MTT-based cytotoxicity assay, U373; assay type: cell-based; settings: Homo sapiens, U373 MG, 72 h
Procedure: as §1

G144 [1] = test: MTT-based cytotoxicity assay, G144; assay type: cell-based, human; settings: Homo sapiens, 72 h, G144, MTT
Procedure: as §1
Previous studies have reported that the molecular signature of the GNSC G144 cell line corresponds to a 'proneural' subtype of GB with NSC features (Pollard et al., 2009; Danovi et al., 2013). Thus, to test BMT9 specificity we compared cellular viability when treating CD133-positive cells (either GNSCs or normal human fetal neural stem cells-NSC) versus CD133-negative human embryonic fibroblast (HEFs) (Figure 8A). MTT-based cytotoxicity assay (Figure 7B-D) were performed as previously described.
While the first line therapy of gliomas has proven its effectiveness and improved clinical outcomes, acquired chemoresistance to alkylating agents has been identified as a major cause of treatment failure (Sarkaria et al., 2008). In a murine model of GB, long-term treatment with subtoxic TMZ doses enriched the side population of cancer stem cells, increasing the tumor aggressiveness (Bleau et al., 2009). Thus, we generated TMZ-resistant G144-clones that were selected upon treatment with TMZ either at 500 µM or 700 µM for several months (R500 and R700, respectively). The obtained clones maintained CD133 stem marker expression (Figure 9A). We then analyzed BMT9 dose-dependent effect on cell viability, by MTT assay, comparing the resistant clones to parental cells.

G144 [2] = settings: called 'known'; cell line not stated, used in G144 parental and resistant clone experiment; cited from earlier work
GNSCs = test: MTT assay of BMT9 analogues against GNSCs; assay type: cell-based; settings: 48 and 72 h
Procedure: as §1
The cytotoxicity of two BMT9 analogues synthetized by Instituto Biomar S.A. was evaluated by MTT assays.

P1-TP73 promoter = test: P1-p73-Fluc-DsRed reporter validation in HCT116 p53-/- cells; assay type: cell-based, human; settings: HCT116 p53-/- cells transfected with P1-p73-FlucDsRed vector, cultured with Doxo, 24 and 48 hours
Source text: A bimodal reporter vector, named P1-p73-Fluc-DsRed2, was engineered based on the previously published lentiviral system LV-CMV-Fluc-dsRed2 (Shah et al., 2008). […] Using this backbone, the CMV promoter was swapped for a 930 bp fragment of the human P1-TP73 promoter contained in the P1-p73-Luc-pGL3-Basic vector (-859 to +71 of TP73 gene) (Seelan et al., 2002) (Figure 1A'). To validate the generated system, we used the HCT116 p53-/- cells in which endogenous TAp73 expression can be induced by the genotoxic drug doxorubicin (Doxo), at RNA and protein levels (Figure 1B and Vossio et al., 2002, respectively). Next, we tested whether the engineered reporter vector could monitor these changes in endogenous TAp73 RNA levels. For this purpose, HCT116 p53-/- cells were either non-transfected (NT) or transfected with P1-p73-FlucDsRed vector and cultured with Doxo (black square fill pattern bar) or without treatment (grey bar) for the indicated time points (Figure 1C), at which the fluorescence levels (DsRed, Y axis) were measured by fluorimetry.
As depicted in Figure 1C, we detected an increase in endogenous P1-promoter activity after 24 and 48 hours of culture […].

`O=NN(CCCl)C(=O)NCCCl` [BCNU, carmustine, reference compound] gave an IC50 (T98G) of 500 µM, an IC50 (U373) of 250 µM and an IC50 (G144 [1]) of 250 µM. For the same compound, the IC50 (G144 [2]) was 500 µM.
In the case of `C=C1C2CCC(C)(C3COc4c(C=O)c5c(c(OC)c4C3O)C(=O)OC5O)C1CCC2(C)C` (stereo not shown) [BMT9.2], the IC50 (GNSCs) is reported as at most 4.5 µM.
With `C=C1C2CCC(C)(C3COc4c(C=O)c5c(c(OC)c4C3O)C(=O)OC5OC(C)=O)C1CCC2(C)C` (stereo not shown) [BMT9.5] the IC50 (GNSCs) was at most 4.5 µM.
In the case of `COc1cccc2c1C(=O)c1c(O)c3c(c(O)c1C2=O)C[C@@](O)(C(=O)CO)C[C@@H]3O[C@H]1C[C@H](N)[C@H](O)[C@H](C)O1` [Doxo, doxorubicin], the “reporter activity (DsRed fluorescence)” value (P1-TP73 promoter) is reported as “increase in reporter activity that was sustained after 48 hours”.

From patent publication EP4349409A1, “COMPOUNDS FOR THE MANAGEMENT OF CELL STEMNESS AND INVASION IN CANCER AND RELATED DISEASES” (Instituto Biomar S.A., priority 2022, dated 2024)
